Patent publication US20230117034A1, “PYRAZOLOTRIAZINES” (Bayer Aktiengesellschaft, priority 2019, published 2023)

Experiments:
[1] = biological target: T1, CDK2/CycE (Homo sapiens, UniProt P24941); assay: CDK2/CycE kinase assay (TR-FRET, 2 mM ATP); format: biochemical; settings: 2 mM ATP (high ATP); median; read-out: CDK2/CyclinE, 2 mM ATP (high ATP), IC50 (median)
T1 construct: purchased ProQinase GmbH (Freiburg, Germany); host or cells: insect cells (Sf9)
Method in brief: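 Biotin-peptide phosphorylation (0.75 µM substrate, 2 mM ATP final, 25 min, 22 °C) by Sf9-expressed GST-CDK2/GST-CycE, after a 15-min compound pre-binding step. Inhibition scaled between enzyme-free (100%) and uninhibited (0%) wells.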

[2] = biological target: T2, CDK9/CycT1 (Homo sapiens, UniProt P50750); assay: CDK9/CycT1 high ATP kinase assay (TR-FRET, 2 mM ATP); format: biochemical; settings: 2 mM ATP (high ATP); median; read-out: CDK9/CyclinT1, 2 mM ATP (high ATP), IC50 (median)
T2 construct: Recombinant full-length His-tagged human CDK9 and CycT1; purchased Life Technologies PV4131; host or cells: insect cells
Method in brief: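 Full-length His-tagged human CDK9/CycT1 (insect cell, ~0.5 μg/mL) preincubated 15 min at 22 °C with compound in Tris pH 8.0, MgCl2, DTT buffer before reaction with biotinylated peptide substrate at high ATP (2 mM).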

T2 sequence (P50750 whole entry): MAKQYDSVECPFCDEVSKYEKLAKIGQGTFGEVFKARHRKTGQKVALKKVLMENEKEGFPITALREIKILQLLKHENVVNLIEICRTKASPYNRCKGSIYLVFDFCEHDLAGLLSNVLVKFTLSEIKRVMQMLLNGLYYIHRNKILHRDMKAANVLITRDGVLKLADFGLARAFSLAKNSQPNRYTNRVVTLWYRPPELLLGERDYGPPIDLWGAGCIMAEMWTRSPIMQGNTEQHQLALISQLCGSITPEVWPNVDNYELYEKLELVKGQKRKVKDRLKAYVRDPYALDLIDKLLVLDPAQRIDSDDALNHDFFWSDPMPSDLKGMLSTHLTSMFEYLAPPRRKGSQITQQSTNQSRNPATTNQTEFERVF
T2 sequence (O60563 whole entry partner): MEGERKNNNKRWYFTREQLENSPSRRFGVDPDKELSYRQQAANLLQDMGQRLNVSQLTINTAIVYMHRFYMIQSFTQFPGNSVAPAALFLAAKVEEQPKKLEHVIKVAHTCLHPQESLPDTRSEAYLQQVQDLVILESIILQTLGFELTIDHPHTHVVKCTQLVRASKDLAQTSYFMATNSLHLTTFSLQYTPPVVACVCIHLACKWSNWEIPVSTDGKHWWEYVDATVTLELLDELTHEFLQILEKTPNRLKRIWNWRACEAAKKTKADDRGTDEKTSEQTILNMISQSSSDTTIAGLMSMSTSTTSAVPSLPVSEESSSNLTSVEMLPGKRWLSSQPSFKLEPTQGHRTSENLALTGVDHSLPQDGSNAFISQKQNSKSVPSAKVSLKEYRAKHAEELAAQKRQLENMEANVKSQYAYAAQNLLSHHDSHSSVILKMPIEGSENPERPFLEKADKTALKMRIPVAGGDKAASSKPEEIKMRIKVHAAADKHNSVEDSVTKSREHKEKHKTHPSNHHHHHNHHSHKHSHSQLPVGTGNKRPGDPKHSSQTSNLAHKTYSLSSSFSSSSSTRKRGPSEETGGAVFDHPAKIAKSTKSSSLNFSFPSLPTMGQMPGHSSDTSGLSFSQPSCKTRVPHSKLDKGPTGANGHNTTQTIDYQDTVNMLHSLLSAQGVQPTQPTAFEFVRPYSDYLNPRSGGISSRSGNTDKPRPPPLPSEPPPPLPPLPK

Row | Structure (SMILES) | IC50 [1] [µM] | IC50 [2] [µM]
1 | Fc1ccc2[nH]c(CNc3nc(N4CCN5CCC4CC5)nc4c(C(F)(F)F)cnn34)nc2c1F [Example 407, 2-(1,4-diazabicyclo[3.2.2]nonan-4-yl)-N-[(4,5-difluoro-1H-benzimidazol-2-yl)methyl]-8-(trifluoromethyl)pyrazolo[1,5-a][1,3,5]triazin-4-amine] | > 20 | > 20
2 | Brc1cnn2c(NCc3nc4ccccc4[nH]3)nc(N3CCCCC3)nc12 [Example 46, N-[(1H-benzimidazol-2-yl)methyl]-8-bromo-2-(piperidin-1-yl)pyrazolo[1,5-a][1,3,5]triazin-4-amine] | 1.85 | > 20
3 | Brc1cnn2c(NCc3nc4ccccc4[nH]3)nc(OCC3CC3)nc12 [Example 408, N-[(1H-benzimidazol-2-yl)methyl]-8-bromo-2-(cyclopropylmethoxy)pyrazolo[1,5-a][1,3,5]triazin-4-amine] | > 19.7 | > 20
4 | Fc1ccc2[nH]c(CNc3nc(N4CCOCC4)nc4c(C(F)(F)F)cnn34)nc2c1F [Example 426, N-[(4,5-difluoro-1H-benzimidazol-2-yl)methyl]-2-(morpholin-4-yl)-8-(trifluoromethyl)pyrazolo [1,5-a][1,3,5]triazin-4-amine] | 17.3 | 12.7
5 | Cc1cnn2c(NCc3nc4ccccc4[nH]3)nc(N3CCN(C)CC3)nc12 [Example 396, N-[(1H-benzimidazol-2-yl)methyl]-8-methyl-2-(4-methylpiperazin-1-yl)pyrazolo[1,5-a][1,3,5]triazin-4-amine] | 13.9 | > 20
6 | CCc1cnn2c(NCc3nc4ccccc4[nH]3)nc(N3CCN(C)CC3)nc12 [Example 434, N-[(1H-benzimidazol-2-yl)methyl]-8-ethyl-2-(4-methylpiperazin-1-yl)pyrazolo[1,5-a][1,3,5] triazin-4-amine] | 6.37 | > 20
7 | Brc1cnn2c(NCc3nnc(-c4cccnc4)[nH]3)nc(N3CCOCC3)nc12 [Example 53, 8-bromo-2-(morpholin-4-yl)-N-{[5-(pyridin-3-yl)-4H-1,2,4-triazol-3-yl]methyl}pyrazolo[1,5-a][1,3,5]triazin-4-amine] | 1.68 | 1.29
8 | Clc1cc2nc(CNc3nc(N4CCOCC4)nc4c(-c5cncs5)cnn34)[nH]c2cc1Cl [Example 443, N-[(5,6-dichloro-1H-benzimidazol-2-yl)methyl]-2-(morpholin-4-yl)-8-(1,3-thiazol-5-yl)pyrazolo[1,5-a][1,3,5]triazin-4-amine] | > 20 | > 20
9 | Brc1cnn2c(NCc3nnc(-c4ccccn4)[nH]3)nc(N3CCOCC3)nc12 [Example 54, 8-bromo-2-(morpholin-4-yl)-N-{[5-(pyridin-2-yl)-4H-1,2,4-triazol-3-yl]methyl}pyrazolo[1,5-a][1,3,5]triazin-4-amine] | 1.89 | 6.24
10 | Cn1cc(-c2cnn3c(NCc4nc5cc(Cl)c(Cl)cc5[nH]4)nc(N4CCOCC4)nc23)cn1 [Example 419, N-[(5,6-dichloro-1H-benzimidazol-2-yl)methyl]-8-(1-methyl-1H-pyrazol-4-yl)-2-(morpholin-4-yl)pyrazolo[1,5-a][1,3,5]triazin-4-amine] | > 20 | > 20
11 | Fc1ccc2[nH]c(CNc3nc(N4CCOCC4)nc4c(CC(F)F)cnn34)nc2c1F.O=C(O)C(F)(F)F [Example 425, trifluoroacetic acid N-[(4,5-difluoro-1H-benzimidazol-2-yl)methyl]-8-(2,2-difluoroethyl)-2-(morpholin-4-yl)pyrazolo[1,5-a][1,3,5]triazin-4-amine] | > 20 | > 20
12 | CN1CCN(c2nc(NCc3nc4c(F)c(F)ccc4[nH]3)n3ncc(-c4nccs4)c3n2)CC1 [Example 415, N-[(4,5-difluoro-1H-benzimidazol-2-yl)methyl]-2-(4-methylpiperazin-1-yl)-8-(1,3-thiazol-2-yl)pyrazolo[1,5-a][1,3,5]triazin-4-amine] | > 20 | > 20
13 | Brc1cnn2c(NCc3nc4ccccc4[nH]3)nc(N3CCCC3)nc12 [Example 47, N-[(1H-benzimidazol-2-yl)methyl]-8-bromo-2-(pyrrolidin-1-yl)pyrazolo[1,5-a][1,3,5]triazin-4-amine] | 4.66 | > 20
